Source: patent US20250154144A1 (CHILDREN'S HOSPITAL MEDICAL CENTER, priority 2021, published 2025)
pKd: −log10 of the molar value. Read-outs that look alike come from different tables or passages of the source.

Columns and labels:
THP1 cells = test: Combination drug screening, Cell Titer Glo, 10 × 10 matrix, THP1 cells; assay type: cell-based; details: single compound range 0-10,000 nM or 0-20,000 nM
MOLM14(D835Y) cells = assay type: cell-based; details: MOLM14(D835Y) cells; for Excess HSA Score: 10 × 10
IRAK4 = biological target: T1, IRAK4 (Homo sapiens, UniProt Q9NWZ3); test: DiscoverX KINOMEscan competition binding, IRAK4; parameters: purchased RBC (Reaction Biology) HotSpot assay
T1 sequence (Q9NWZ3 1-460): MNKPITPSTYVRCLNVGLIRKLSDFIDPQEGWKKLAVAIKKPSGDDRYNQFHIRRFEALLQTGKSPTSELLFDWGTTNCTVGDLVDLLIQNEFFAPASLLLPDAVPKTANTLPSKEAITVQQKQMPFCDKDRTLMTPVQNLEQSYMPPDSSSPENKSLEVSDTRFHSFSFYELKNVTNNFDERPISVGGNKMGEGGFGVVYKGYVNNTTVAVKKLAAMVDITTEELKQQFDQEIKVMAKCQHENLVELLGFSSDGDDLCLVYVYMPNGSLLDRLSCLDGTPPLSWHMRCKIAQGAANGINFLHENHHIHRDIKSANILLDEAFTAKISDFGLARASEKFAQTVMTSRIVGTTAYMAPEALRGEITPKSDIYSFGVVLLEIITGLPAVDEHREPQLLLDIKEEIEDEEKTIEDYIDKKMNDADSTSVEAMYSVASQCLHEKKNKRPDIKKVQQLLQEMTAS

[1] = combination with Venetoclax (ABT-199)

COc1cc2ncc(-c3ccnc(N[C@@H]4CCCNC4)n3)n2cc1C(C)(C)O [Compound 44, (R)-2-(7-methoxy-3-(2-(piperidin-3-ylamino)pyrimidin-4-yl)imidazo[1,2-a]pyridin-6-yl)propan-2-ol]
Comments (THP1 cells; with (+)-BAY-1251152): Synergistic
Excess HSA Score (THP1 cells; with (+)-BAY-1251152): −516.5
Comments (THP1 cells; with AMG-232): Antagonistic
Excess HSA Score (THP1 cells; with AMG-232): 733.5
Comments (THP1 cells; with AZD-5363): Antagonistic
Excess HSA Score (THP1 cells; with AZD-5363): 35.78
Comments (THP1 cells; with Eprenetapopt/APR-246): Antagonistic
Excess HSA Score (THP1 cells; with Eprenetapopt/APR-246): 460.1
Comments (THP1 cells; with Ivosidenib): Synergistic
Excess HSA Score (THP1 cells; with Ivosidenib): −47.26
Comments (THP1 cells; with Lenalidomide): Antagonistic
Excess HSA Score (THP1 cells; with Lenalidomide): 877.5
Comments (THP1 cells; with Palbociclib): Synergistic
Excess HSA Score (THP1 cells; with Palbociclib): −764
Comments (THP1 cells; with Prednisolone): Antagonistic
Excess HSA Score (THP1 cells; with Prednisolone): 68.4575
Comments (THP1 cells; with SNDX-5613): Antagonistic
Excess HSA Score (THP1 cells; with SNDX-5613): 337.7
Comments (THP1 cells; with TNO-155): Synergistic
Excess HSA Score (THP1 cells; with TNO-155): −62.85
Comments (THP1 cells; with Trametinib): Synergistic
Excess HSA Score (THP1 cells; with Trametinib): −453.2
Comments (THP1 cells; with Ulixertinib): Synergistic
Excess HSA Score (THP1 cells; with Ulixertinib): −572.2
Comments (THP1 cells; with Venetoclax (ABT-199)): Synergistic
Excess HSA Score (THP1 cells; with Venetoclax (ABT-199)): −1159
Excess HSA Score (MOLM14(D835Y) cells; combination with (+)-BAY-1251152): −808.4
Excess HSA Score (MOLM14(D835Y) cells; combination with AMG-232): −620.9
Excess HSA Score (MOLM14(D835Y) cells; combination with AZD-5363): −290.5
Excess HSA Score (MOLM14(D835Y) cells; combination with Eprenetapopt/APR-246): 75.21
Excess HSA Score (MOLM14(D835Y) cells; combination with Ivosidenib): 21.01
Excess HSA Score (MOLM14(D835Y) cells; combination with Lenalidomide): 270.3924
Excess HSA Score (MOLM14(D835Y) cells; combination with Palbociclib): −370.2
Excess HSA Score (MOLM14(D835Y) cells; combination with Prednisolone): 409.4
Excess HSA Score (MOLM14(D835Y) cells; combination with SNDX-5613): 3.1084
Excess HSA Score (MOLM14(D835Y) cells; combination with TNO-155): −655.3
Excess HSA Score (MOLM14(D835Y) cells; combination with Trametinib): −420
Excess HSA Score (MOLM14(D835Y) cells; combination with Ulixertinib): −254.1
Excess HSA Score (MOLM14(D835Y) cells; [1]): −1120.4885
Comments (MOLM14(D835Y) cells; combination with SNDX-5613): Antagonistic
Comments (MOLM14(D835Y) cells; [1]): Synergistic
pKd (IRAK4): 10.14
